Reference: patent US9233946B2, “Sulfonamide compounds” (KANCERA AB, priority 2010, dated 2016)

Tests used:
PANC-1 cells = assay: Quantification of F-2,6-P2 in PANC-1 cells; type: cell-based; conditions: Homo sapiens; for IC50: PANC-1, read-out: IC50 based on quantification of F-2,6-P2; for inhibition at 12.5 µM: at 12.5 μM in PANC-1 cells
From the text: The relative kinase (formation) and phosphatase (degradation) activities of the bi-functional enzymes PFKFB3 and PFKFB4 control the intracellular levels of the regulator F-2,6-P2, which acts as an allosteric activator of glycolysis. The levels of F-2,6-P2 have been determined in three different cancer cell lines (MCF-7, PANC-1 and NUGC-3) using the van Shaftingen assay. The assay protocols described under “Methods for measurement of enzymatic activity of PFKFB3 and PFKFB4, Method A” have been adapted for the measurement of the inhibitory effect of compounds on the kinase activity of the various isoforms of the bifunctional enzyme (endogenously expressed) in the different cell lines. The modifications are described in the protocol below. All reagents were purchased from commercial sources or prepared inhouse.
Cell Line B (PANC-1, Human Pancreatic Carcinoma Cell Line)
• Cells: PANC-1 (ATCC-CRL-1469). Lot. no: 58564651. • Growth medium: Dulbecco's Modified Eagle's Medium, DMEM, ATCC-30-2002 10% FBS, Invitrogen, 10106-169
Cells were seeded at a concentration of 250 000 cells/mL in 100 μL growth medium (25 000 cells/well)
Starvation medium: DMEM/F12 without phenol red and glucose free, SVA, 991373 0.25% FBS, Invitrogen, 10106-169
Induction medium: DMEM/F12 without phenol red and glucose free, SVA, 991373 0.25% FBS, Invitrogen, 10106-169 (same as starvation medium)
Cells were seeded in 96-well Corning Costar tissue culture plates (CLS3595, Sigma-Aldrich) using the concentrations specified above for the three different cell lines A-C and incubated over night at 37° C. and 5% CO2. Row A was left empty. Next day the growth medium was discarded and replaced with 100 μL starvation medium. The plates were incubated for 18 h at 37° C. and 5% CO2. After 18 h of starvation the cells were induced with 100 μL compound or control solutions. Compounds were either tested in two concentrations (50 μM and 10 μM) or in dose response curves starting from 50 μM and the final DMSO concentration in assay plates was 0.5%. Also a dose response curve of a reference inhibitor was included in row H on each plate. All compounds were tested in duplicate plates. Compounds (in 96 well CLS 3365, Sigma-Aldrich) were serial diluted in DMSO from 10 mM compound DMSO stock solutions with Janus (automated liquid handling workstation from PerkinElmer). 5 μL were transferred to a Greiner deep well plate (736-0155, VWR) with 495 μL starvation medium. The final start concentration of compounds in the dilution plate was 100 μM, 1% DMSO. For compounds tested as single points, 10 mM compound solutions were diluted five fold in DMSO to 2 mM, followed by the transfer of 5 μL to separate dilution plates with 495 μL starvation medium. The final concentration of compounds in these dilution plates were 100 or 20 μM, respectively, and final concentration of DMSO was 1%. The plates were incubated at 37° C. and 5% CO2 for 1 h, followed by the addition of 10 μL 20 mM D-glucose in starvation medium. Controls, with and without 1 mM glucose, were included in row B. The final assay volume was 210 μL per well. After 2 h of incubation at 37° C. and 5% CO2, supernatants were discarded and the cells were lysed by the addition of 25 μL 250 mM NaOH. The plates were incubated at 37° C. and 5% CO2 for 5 min followed by an addition of 75 μL MilliQ dH2O. The supernatants were further diluted with 210 μL MilliQ dH2O to a final concentration of 20 mM NaOH. 200 μL were transferred to NUNC 96-well plates (7322661, VWR) and the plates were sealed and stored at −20° C. until analysis.
The amount of F-2,6-P2 was quantified based on the coupled enzymatic reaction described by Van Schaftingen. If necessary the samples were further diluted in 20 mM NaOH before quantification. Plates stored at −20° C. were thawed and the F-2,6-P2 quantification was initiated by transferring 40 μL from each well of the NUNC plate to the corresponding position in a trans-parent 96-well SpectraPlate-MB (6005649, PerkinElmer). […]

PFKFB3 = PFKFB3 (Homo sapiens (Human), UniProt Q16875); assay: PFKFB3 kinase activity, Method A (F-2,6-P2 production, coupled PPi-PFK/NADH assay); type: biochemical
From the text: The PFKFB3 (placenta form) and PFKFB4 were produced and purified to homogeneity from E. coli at Biovitrum and at Sprint Bioscience. All other reagents were purchased from commercial sources. Two independent methods have been used for determination of the kinase activity of PFKFB3 (Method A and Method B). Method B has been used for determination of the kinase activity of PFKFB4.
Method A: The kinase activity of the bi-functional enzyme is readily quantified based on the production of F-2,6-P2 as described by Van Schaftingen et al. (1982) Eur. J. Biochem. 129, 191-5. This sensitive assay is based on the potent activation of pyrophosphate dependent phosphofructokinase-1 (PPi-PFK) from potato tubers by F-2,6-P2. The use of a series of coupled enzymes leads to a consumption of NADH (nicotinamide adenine dinucleotide) that can be followed spectrophotometrically (an updated protocol is available in Van Schaftingen, (1984) Methods of Enzymatic Analysis (Bergmeyer, H. U., ed.), 3rd edn., vol. 6, pp. 335-341, Verlag Chemie, Weinheim). A protocol for measurements in 96-well microtiter plate format is also available (Bruni et al., (1989) Anal. Biochem. 178, 324-6). These assay protocols have been adopted for the measurement of the kinase activity of PFKFB3 with some modifications as described in the protocol below.
The assay was run in 96-well microtiter plates (Costar 3365 round bottom polypropylene) by consecutive additions of 30 μl each of a test compound solution (diluted from a DMSO stock solution), a PFKFB3 solution and a substrate (fructose-6-phosphate (F6P) and adenosine-5′-triphosphate (ATP)) containing solution. […] The final concentrations of all reagents in a total assay volume of 90 μl per well were: • 50 mM Tris-acetate at pH 8.0 • 0.1 mM EDTA (ethylene diamine tetraacetic acid) • 10 mM MgCl2 • 5 mM Na2HPO4 (buffered by the Tris-acetate to a final pH of 8.0) • 5 nM PFKFB3 • 4 μM ATP • 100 μM F6P (acid treated and then neutralized to remove any contaminating F-2,6-P2; see Van Schaftingen, 1984) • 1 mM dithiothreitol (DTT) • 0.005% Tween-20
A test compound at various concentrations (which also added 0.83% DMSO to the final solution)
The enzymatic reaction was allowed to proceed for 10 minutes at room temperature while on a plate shaker at medium speed (750 RPM). The reaction was then terminated by the addition of 90 μl of a 0.4 M NaOH solution to all wells. The plate was then placed on the plateshaker at the same speed for two minutes to allow sufficient mixing. All samples were then diluted by a factor of 10 by transferring 20 μl from each well to the corresponding well of a new plate with 180 μl distilled water predispensed to all wells.
The next step in the protocol was quantification of the levels of F-2,6-P2 in each well of the microtiter plate. This was done by transferring 20 μl of the content in each well to the corresponding position in a new plate (Nunc 269620 transparent 96-well plate). […] To ensure that all measured values were within the linear range of the response (measured to be between 0-1 nM of F-2,6-P2 as also described by Van Schaftingen) the same volume of a 2.5 nM and a 5.0 nM standard sample were also added to column 12 (as all samples were diluted five-fold in the assay procedure this corresponds to 0.5 and 1.0 nM samples). The procedure then involved consecutive additions of three solutions with the following premixed components: • Assay-mix (20 μl): Tris-acetate at pH 8.0, NADH and Mg(OAc)2 • PPi/F6P-mix (40 μl): Pyrophosphate and F6P • Enzyme-mix (20 μl): Tris-acetate at pH 8.0, aldolase, triose phosphate isomerase, glycerol-3-phosphate dehydrogenase, pyrophosphate-dependent phosphofructokinase from potato tubers and bovine serum albumin (BSA) […]

Sequence of PFKFB3 (Q16875 whole entry): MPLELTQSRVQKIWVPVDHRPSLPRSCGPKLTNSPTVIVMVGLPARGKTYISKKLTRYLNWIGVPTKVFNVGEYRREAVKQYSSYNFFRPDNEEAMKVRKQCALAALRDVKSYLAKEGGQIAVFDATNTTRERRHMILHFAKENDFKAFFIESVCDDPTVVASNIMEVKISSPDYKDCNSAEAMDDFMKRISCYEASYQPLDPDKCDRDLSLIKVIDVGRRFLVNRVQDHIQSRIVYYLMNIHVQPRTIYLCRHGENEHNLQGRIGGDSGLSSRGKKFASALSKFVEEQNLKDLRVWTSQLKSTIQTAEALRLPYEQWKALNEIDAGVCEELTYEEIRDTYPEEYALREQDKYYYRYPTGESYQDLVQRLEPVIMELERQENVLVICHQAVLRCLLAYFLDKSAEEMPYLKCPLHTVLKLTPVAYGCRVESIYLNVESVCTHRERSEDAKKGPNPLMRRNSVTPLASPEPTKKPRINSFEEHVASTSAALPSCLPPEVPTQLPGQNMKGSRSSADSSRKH

| IC50 (PFKFB3) [µM] | SMILES | other results |
| --- | --- | --- |
|  | Cc1c(S(=O)(=O)Nc2cccc(-c3nnn[nH]3)c2)sc2ccc(C(C)C)cc12 [Example 4, 5-Isopropyl-3-methyl-N-[3-(1H-tetrazol-5-yl)phenyl]benzothiophene-2-sulfonamide] | IC50 (PANC-1 cells): 7.5 µM |
| 2.54 | O=S(=O)(Nc1cccc(-c2nnn[nH]2)c1)c1cccc(-c2cc(Cl)cc(Cl)c2)c1 [Example 52, 3-(3,5-Dichlorophenyl)-N-[3-(1-H-tetrazol-5-yl)phenyl]benzenesulfonamide] |  |
| 1.78 | Cc1cc(Cl)cc(Cl)c1S(=O)(=O)Nc1cccc(-c2nnn[nH]2)c1 [Example 53, 2,4-Dichloro-6-methyl-N-[3-(1H-tetrazol-5-yl)phenyl]benzenesulfonamide] |  |
| 5.75 | O=S(=O)(Nc1cccc(-c2nnn[nH]2)c1)c1cccc(-c2ccc(C(F)(F)F)cc2)c1 [Example 55, N-[3-(1H-Tetrazol-5-yl)phenyl]-3-[4-(trifluoromethyl)phenyl]benzenesulfonamide] |  |
| 1.12 | O=S(=O)(Nc1cccc(-c2nnn[nH]2)c1)c1ccc(Br)cc1C(F)(F)F [Example 56, 4-Bromo-N-[3-(1H-tetrazol-5-yl)phenyl]-2-(trifluoromethyl)benzenesulfonamide] |  |
| 0.54 | NC(=O)c1cccc(-c2ccc(S(=O)(=O)Nc3cccc(-c4nnn[nH]4)c3)s2)c1 [Example 58, 3-[5-[[3-(1H-Tetrazol-5-yl)phenyl]sulfamoyl]-2-thienyl]benzamide] |  |
| 0.56 | O=S(=O)(Nc1cccc(-c2nnn[nH]2)c1)c1ccc(-c2nsc(Cl)n2)s1 [Example 59, 5-(5-Chloro-1,2,4-thiadiazol-3-yl)-N-[3-(1H-tetrazol-5-yl)phenyl]thiophene-2-sulfonamide] |  |
| 6.69 | O=C(O)c1cccc(NS(=O)(=O)c2ccc(-c3ccccn3)s2)c1 [Example 78, 3-{[(5-Pyridin-2-yl-2-thienyl)sulfonyl]amino}benzoic acid] |  |
| 6.31 | O=C(O)c1cccc(NS(=O)(=O)c2ccc(-c3ccon3)s2)c1 [Example 79, 3-{[(5-Isoxazol-3-yl-2-thienyl)sulfonyl]amino}benzoic acid] |  |
| 9.84 | O=S(=O)(Nc1cccc(-c2nnn[nH]2)c1)c1ccc(F)cc1Cl [Example 81, 2-Chloro-4-fluoro-N-[3-(1H-tetrazol-5-yl)phenyl]benzenesulfonamide] |  |
| 8.45 | O=S(=O)(Nc1cccc(-c2nnn[nH]2)c1)c1ccc(-c2cnco2)cc1 [Example 83, 4-(1,3-Oxazol-5-yl)-N-[3-(1H-tetrazol-5-yl)phenyl]benzenesulfonamide] |  |
|  | COC(=O)c1cccc(NS(=O)(=O)c2ccc(-c3csc(C)n3)s2)c1 [Example 88, Methyl 3-({[5-(2-methyl-1,3-thiazol-4-yl)-2-thienyl]sulfonyl}amino)benzoate] | IC50 (PANC-1 cells): 5.4 µM |
|  | COC(=O)c1cccc(NS(=O)(=O)c2sc3ccc(C(C)C)cc3c2C)c1 [Example 92, Methyl 3-({[3-methyl-5-(1-methylethyl)-1-benzothiophen-2-yl]sulfonyl}amino)benzoate] | IC50 (PANC-1 cells): 0.5 µM |
|  | Cc1c(S(=O)(=O)Nc2cccc(C(=O)OCCn3cccc3)c2)sc2ccc(Cl)cc12 [Example 106, 2-(1H-Pyrrol-1-yl)ethyl 3-{[(5-chloro-3-methyl-1-benzothien-2-yl)sulfonyl]amino}benzoate] | inhibition at 12.5 µM (PANC-1 cells): > 50% |
|  | CCOC(=O)c1cccc(NS(=O)(=O)c2sc3ccc(Cl)cc3c2C)c1 [Example 107, Ethyl 3-{[(5-chloro-3-methyl-1-benzothien-2-yl)sulfonyl]amino}benzoate] | inhibition at 12.5 µM (PANC-1 cells): > 50% |
|  | Cc1c(S(=O)(=O)Nc2cccc(C(=O)OC(C)C)c2)sc2ccc(Cl)cc12 [Example 108, Isopropyl 3-{[(5-chloro-3-methyl-1-benzothien-2-yl)sulfonyl]amino}benzoate] | IC50 (PANC-1 cells): 3.1 µM |
|  | COCCOC(=O)c1cccc(NS(=O)(=O)c2sc3ccc(Cl)cc3c2C)c1 [Example 109, 2-Methoxyethyl 3-{[(5-chloro-3-methyl-1-benzothiophen-2-yl)sulfonyl]amino}benzoate] | inhibition at 12.5 µM (PANC-1 cells): > 50% |
|  | Cc1c(S(=O)(=O)Nc2cccc(C(=O)OCc3ccccc3)c2)sc2ccc(Cl)cc12 [Example 111, Benzyl 3-{[(5-chloro-3-methyl-1-benzothiophen-2-yl)sulfonyl]amino}benzoate] | inhibition at 12.5 µM (PANC-1 cells): > 50% |
|  | CCCOC(=O)c1cccc(NS(=O)(=O)c2sc3ccc(Cl)cc3c2C)c1 [Example 112, Propyl 3-{[(5-chloro-3-methyl-1-benzothien-2-yl)sulfonyl]amino}benzoate] | IC50 (PANC-1 cells): 4.3 µM |
|  | CCCCCOC(=O)c1cccc(NS(=O)(=O)c2sc3ccc(Cl)cc3c2C)c1 [Example 113, Pentyl 3-{[(5-chloro-3-methyl-1-benzothiophen-2-yl)sulfonyl]amino}benzoate] | inhibition at 12.5 µM (PANC-1 cells): > 50% |
